In ChEMBL document CHEMBL1155351, “Synthesis and evaluation of novel tricyclic benzo[4.5]cyclohepta[1.2]pyridine derivatives as NMDA/NR2B antagonists” (Bioorg Med Chem Lett, 2009):

Tests used:
[1] = molecular target: Voltage-gated inwardly rectifying potassium channel KCNH2 (Homo sapiens, UniProt Q12809); assay: Displacement of [35S]MK499 from human ERG expressed in HEK293 cells; assay type: cell-based; details: for IC50: read-out: IP
[2] = molecular target: Glutamate receptor ionotropic, NMDA 2B (Homo sapiens, UniProt Q13224); assay: Antagonistic activity against NR2B receptor expressed in mouse Ltk cells assessed as inhibition of calcium influx by FLIPR assay; assay type: functional, cell-based
Glutamate receptor ionotropic, NMDA 2B, sequence (Q13224 whole entry): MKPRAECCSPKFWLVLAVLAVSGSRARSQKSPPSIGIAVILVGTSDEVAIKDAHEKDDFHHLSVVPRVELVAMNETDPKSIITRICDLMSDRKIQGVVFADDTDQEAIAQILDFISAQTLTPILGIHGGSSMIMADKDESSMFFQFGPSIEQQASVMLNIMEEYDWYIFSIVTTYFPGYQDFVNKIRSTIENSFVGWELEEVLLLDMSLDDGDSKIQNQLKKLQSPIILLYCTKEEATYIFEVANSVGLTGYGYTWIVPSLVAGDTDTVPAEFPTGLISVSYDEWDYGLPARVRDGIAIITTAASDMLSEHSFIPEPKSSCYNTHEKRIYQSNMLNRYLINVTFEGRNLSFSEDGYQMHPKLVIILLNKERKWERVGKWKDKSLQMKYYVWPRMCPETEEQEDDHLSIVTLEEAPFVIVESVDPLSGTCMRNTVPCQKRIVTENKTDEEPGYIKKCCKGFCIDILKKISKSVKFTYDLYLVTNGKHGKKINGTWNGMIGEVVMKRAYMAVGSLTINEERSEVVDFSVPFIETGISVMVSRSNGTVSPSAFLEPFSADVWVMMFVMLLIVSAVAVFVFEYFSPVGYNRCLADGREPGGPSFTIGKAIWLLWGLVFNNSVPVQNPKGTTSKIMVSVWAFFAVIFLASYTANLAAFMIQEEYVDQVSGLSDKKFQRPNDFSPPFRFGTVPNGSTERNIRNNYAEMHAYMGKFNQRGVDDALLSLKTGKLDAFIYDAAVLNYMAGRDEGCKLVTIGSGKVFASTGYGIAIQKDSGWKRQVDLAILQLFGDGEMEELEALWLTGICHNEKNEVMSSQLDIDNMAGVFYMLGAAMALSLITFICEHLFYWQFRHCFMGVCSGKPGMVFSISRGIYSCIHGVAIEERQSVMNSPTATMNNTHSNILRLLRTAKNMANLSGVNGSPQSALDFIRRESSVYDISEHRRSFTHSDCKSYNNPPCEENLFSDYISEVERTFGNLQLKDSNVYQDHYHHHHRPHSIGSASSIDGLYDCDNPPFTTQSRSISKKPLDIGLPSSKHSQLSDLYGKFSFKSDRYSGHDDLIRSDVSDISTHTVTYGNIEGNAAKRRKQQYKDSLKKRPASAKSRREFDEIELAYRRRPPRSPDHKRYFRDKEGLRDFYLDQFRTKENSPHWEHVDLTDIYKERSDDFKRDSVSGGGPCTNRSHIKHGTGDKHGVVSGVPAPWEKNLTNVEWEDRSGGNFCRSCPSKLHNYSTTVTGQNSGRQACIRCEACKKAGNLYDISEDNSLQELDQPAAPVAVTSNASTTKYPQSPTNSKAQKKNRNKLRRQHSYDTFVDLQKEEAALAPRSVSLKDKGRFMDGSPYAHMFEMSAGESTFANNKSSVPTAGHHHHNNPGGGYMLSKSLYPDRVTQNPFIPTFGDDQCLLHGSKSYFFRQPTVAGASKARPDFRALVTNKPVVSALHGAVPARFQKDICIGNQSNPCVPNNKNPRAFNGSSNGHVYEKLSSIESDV

[3] = Binding affinity to alpha1 adrenergic receptor
[4] = Displacement of [3H](E)-N1-(2-methoxybenzyl)-cinnamamidine from human recombinant N-methyl-D-aspartate receptor subunit NR1a/N-methyl D-aspartate receptor subtype 2B expressed in mouse Ltk cells by radioligand binding assay
Homo sapiens = organism: Homo sapiens; assay: Selectivity ratio of Ki for human NR2B to IP for human ERG

Voltage-gated inwardly rectifying potassium channel KCNH2, sequence (Q12809 whole entry): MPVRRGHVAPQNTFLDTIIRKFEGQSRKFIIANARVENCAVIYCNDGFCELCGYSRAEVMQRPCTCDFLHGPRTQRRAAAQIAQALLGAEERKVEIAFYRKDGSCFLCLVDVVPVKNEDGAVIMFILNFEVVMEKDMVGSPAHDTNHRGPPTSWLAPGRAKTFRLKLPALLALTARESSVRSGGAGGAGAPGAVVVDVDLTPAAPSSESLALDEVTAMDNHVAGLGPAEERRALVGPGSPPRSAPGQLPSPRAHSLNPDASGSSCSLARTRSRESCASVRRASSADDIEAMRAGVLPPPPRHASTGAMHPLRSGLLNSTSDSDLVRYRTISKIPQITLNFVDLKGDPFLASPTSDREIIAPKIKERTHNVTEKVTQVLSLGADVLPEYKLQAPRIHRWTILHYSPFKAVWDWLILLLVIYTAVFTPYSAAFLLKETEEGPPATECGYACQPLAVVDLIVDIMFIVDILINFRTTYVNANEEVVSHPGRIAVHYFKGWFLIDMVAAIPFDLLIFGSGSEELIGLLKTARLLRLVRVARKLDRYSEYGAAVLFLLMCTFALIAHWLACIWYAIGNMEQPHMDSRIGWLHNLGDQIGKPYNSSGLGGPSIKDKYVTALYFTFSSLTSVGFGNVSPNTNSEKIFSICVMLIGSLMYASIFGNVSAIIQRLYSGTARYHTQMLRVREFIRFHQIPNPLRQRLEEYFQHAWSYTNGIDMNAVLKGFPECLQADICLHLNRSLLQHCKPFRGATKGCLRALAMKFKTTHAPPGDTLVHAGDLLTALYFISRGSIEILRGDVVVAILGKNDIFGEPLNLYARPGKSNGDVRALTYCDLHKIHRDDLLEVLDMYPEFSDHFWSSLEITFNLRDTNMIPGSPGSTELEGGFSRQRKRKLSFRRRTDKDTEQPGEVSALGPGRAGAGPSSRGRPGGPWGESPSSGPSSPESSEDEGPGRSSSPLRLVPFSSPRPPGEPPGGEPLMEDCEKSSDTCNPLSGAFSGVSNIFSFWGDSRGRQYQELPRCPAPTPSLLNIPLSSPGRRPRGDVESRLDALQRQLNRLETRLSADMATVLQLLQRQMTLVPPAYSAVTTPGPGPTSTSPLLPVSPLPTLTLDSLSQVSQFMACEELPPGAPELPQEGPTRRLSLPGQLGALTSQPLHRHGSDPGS

Q: Which results are given for N#Cc1cccc2c1C=Cc1ncc(N3CCCCC3)cc1C2O (single isomer, unassigned; (-)) [listing 1 of 2 here]?
A: IC50 [1]: 20000 nM; IC50 [2]: 27 nM; Ki [3]: > 21000 nM; Ki [4]: 17 nM

Q: With CC(=O)OC1c2cc(-c3ccccc3)cnc2C=Cc2c(C#N)cccc21 (centres undefined) as the molecule, how does the IC50 [1] read?
A: Its IC50 is 653 nM.

Q: And the Ki [4]?
A: The Ki was 10 nM.

Q: With N#Cc1cccc2c1C=Cc1ncc(N3CCCCC3)cc1C2O (single isomer, unassigned; (-)) [listing 2 of 2 here] as the molecule, how does the Ratio (Homo sapiens) read?
A: The Ratio was 1000.

Q: What does the source list for N#Cc1cccc2c1C=Cc1ncc(-c3ccc(F)cc3)cc1C2O (centres undefined)?
A: IC50 [1]: 512 nM; Ki [4]: 3 nM

Q: With N#Cc1cccc2c1C=Cc1ncc(N3CCCCC3)cc1C2O (single isomer, unassigned; (+)) as the molecule, how does the IC50 [1] read?
A: Its IC50 is 20000 nM.

Q: What about the Ki [4] of the same molecule?
A: Its Ki is 35000 nM.

Q: For N#Cc1cccc2c1C=Cc1ncc(-c3ccccc3)cc1C2, which IC50 [1] is on record?
A: Its IC50 is 65 nM.

Q: And the Ki [4]?
A: Its Ki is 2 nM.

Q: Which results are given for N#Cc1cccc2c1C=Cc1ncc(-c3ccccc3)cc1C2O (single isomer, unassigned; (-))?
A: IC50 [1]: 590 nM; IC50 [2]: 9 nM; Ki [3]: 5000 nM; Ki [4]: 1 nM

Q: Which IC50 [1] does the source give for N#Cc1cccc2c1C=Cc1ncc(N3CCCC3)cc1C2O (centres undefined) here?
A: The IC50 was 15500 nM.

Q: What about the Ki [4] of the same molecule?
A: Its Ki is 720 nM.

Q: Which results are given for N#Cc1cccc2c1C=Cc1ncc(-c3cccc(F)c3)cc1C2O (centres undefined)?
A: IC50 [1]: 4970 nM; Ki [4]: 23 nM

Q: With CC1CCN(c2cnc3c(c2)C(O)c2cccc(C#N)c2C=C3)CC1 (centres undefined) as the molecule, how does the IC50 [1] read?
A: Its IC50 is 5300 nM.

Q: What about the Ki [4] of the same molecule?
A: The Ki was 83 nM.

Q: Which IC50 [1] does the source give for N#Cc1cccc2c1C=Cc1ncc(N3CCCCC3)cc1C2O (racemic) here?
A: The IC50 was 10000 nM.

Q: What about the Ki [4] of the same molecule?
A: Its Ki is 43 nM.

Q: What does the source list for N#Cc1cccc2c1C=Cc1ncc(-c3ccccc3)cc1C2O (racemic)?
A: IC50 [1]: 5100 nM; Ki [4]: 2 nM

Q: With CN1CCN(c2cnc3c(c2)C(O)c2cccc(C#N)c2C=C3)CC1 (centres undefined) as the molecule, how does the IC50 [1] read?
A: The IC50 was 42000 nM.

Q: What about the Ki [4] of the same molecule?
A: The Ki was greater than 16000 nM.

Q: With COc1ccc(-c2cnc3c(c2)C(O)c2cccc(C#N)c2C=C3)cc1 (centres undefined) as the molecule, how does the IC50 [1] read?
A: Its IC50 is 1610 nM.

Q: What about the Ki [4] of the same molecule?
A: Its Ki is 8 nM.

Q: For COc1ccccc1-c1cnc2c(c1)C(O)c1cccc(C#N)c1C=C2 (centres undefined), which IC50 [1] is on record?
A: Its IC50 is 5450 nM.

Q: And the Ki [4]?
A: The Ki was 13 nM.

Q: Which Ki [1] does the source give for N#Cc1cccc2c1C(=O)Nc1ncc(-c3ccccc3)cc1C2 here?
A: The Ki was 431 nM.

Q: What about the Ki [4] of the same molecule?
A: Its Ki is 19 nM.

Q: What does the source list for N#Cc1cccc2c1C=Cc1ncc(-c3ccccc3)cc1C2O (single isomer, unassigned; (+))?
A: IC50 [1]: 10000 nM; Ki [4]: 540 nM

Q: With COC1c2cc(-c3ccccc3)cnc2C=Cc2c(C#N)cccc21 (centres undefined) as the molecule, how does the IC50 [1] read?
A: The IC50 was 660 nM.

Q: What about the Ki [4] of the same molecule?
A: Its Ki is 4800 nM.

Q: With COc1cccc(-c2cnc3c(c2)C(O)c2cccc(C#N)c2C=C3)c1 (centres undefined) as the molecule, how does the IC50 [1] read?
A: Its IC50 is 1530 nM.

Q: What about the Ki [4] of the same molecule?
A: Its Ki is 9 nM.

Q: Which IC50 [1] does the source give for N#Cc1cccc2c1C=Cc1ncc(N3CCOCC3)cc1C2O (centres undefined) here?
A: Its IC50 is 20000 nM.

Q: And the Ki [4]?
A: Its Ki is 196 nM.

Q: With Cc1ccc(-c2cnc3c(c2)C(O)c2cccc(C#N)c2C=C3)cc1 (centres undefined) as the molecule, how does the IC50 [1] read?
A: The IC50 was 1700 nM.

Q: And the Ki [4]?
A: Its Ki is 10 nM.

Q: For N#Cc1cccc2c1C=Cc1ncc(-c3ccccc3F)cc1C2O (centres undefined), which IC50 [1] is on record?
A: Its IC50 is 4440 nM.

Q: And the Ki [4]?
A: The Ki was 16 nM.

Q: Which results are given for Cc1ccccc1-c1cnc2c(c1)C(O)c1cccc(C#N)c1C=C2 (centres undefined)?
A: IC50 [1]: 1350 nM; Ki [4]: 6 nM

Q: Which results are given for N#Cc1cccc2c1CCc1ncc(-c3ccccc3)cc1C2O (centres undefined)?
A: IC50 [1]: 3560 nM; Ki [4]: 56 nM

Q: With N#Cc1cccc2c1CCc1ncc(-c3ccccc3)cc1C2 as the molecule, how does the IC50 [1] read?
A: The IC50 was 154 nM.

Q: What about the Ki [4] of the same molecule?
A: Its Ki is 77 nM.

Q: Which results are given for Cc1cccc(-c2cnc3c(c2)C(O)c2cccc(C#N)c2C=C3)c1 (centres undefined)?
A: IC50 [1]: 1100 nM; Ki [4]: 4 nM

Q: Which results are given for N#Cc1cccc2c(=O)c3cc(-c4ccccc4)cnc3ccc12?
A: IC50 [1]: 882 nM; Ki [4]: 1000 nM

Q: Which results are given for N#Cc1cccc2c1C=Cc1ncc(N3CCCCCC3)cc1C2O (centres undefined)?
A: IC50 [1]: 3000 nM; Ki [4]: 428 nM
